Test results published in US9962341B2, “Active pharmaceutical ingredient (API) comprising cannabinoids for use in the treatment of cancer” (GW Pharma Limited, priority 2014, dated 2018).
Like-named read-outs stand apart in the source and are kept apart here.

How the values were obtained:
Assay type in all cases: cell-based
A549 = assay: Cell viability (CellTiter-Blue, 72 h), A549 lung cancer cells; details: Homo sapiens
Description: (§1) The following cell lines were tested in this example: Lung Cancer (A549, NCI-H460); Pancreatic cancer (PANC1, Mia-Pa-Ca-2); Melanoma (WM115, A375); Ovarian cancer (OVCAR3, SKOV3); Gastric cancer (MKN45, HGC-27); Renal cancer (ACHN) and Bladder Cancer (RT112).
(§2) Each tumour cell line was maintained in vitro in RPMI 1640+10% heat inactivated FBS and 2 mM L-glutamine (growth media) at 37° C. in 5% CO2 and humidified conditions. The cells were harvested, washed, re-suspended into growth medium and counted. The cells were re-suspended into assay media (RPMI 1640+5% heat inactivated FBS+ and 2 mM L-glutamine) at 4×10^4 cells/ml (dependent upon cell type) and plated into the middle 240 wells of 384 well tissue culture plates (Corning CellBind, black-wall plates) 25 μl/well aliquots; 50 μl of growth media was aliquoted into the outer wells. There were 3 plates for each cell line.
(§3) The plates were incubated overnight at 37° C., in 5% humidified CO2.
(§4) The phytocannabinoid test compounds were prepared in 100% DMSO vehicle at a stock concentration of 20 and 40 mM.
(§5) Starting with the 20 mM stock in DMSO, this was serially diluted (2 fold) in DMSO in a 96-well plate, to 20 (no dilution), 10, 5, 2.5, 1.25, 0.625, 0.315, 0.157 and […]. Following this, 10 ul of each compound dilution was diluted into 990 ul of 1% (v/v) FBS media in a deep well block making the final concentrations of 200, 100, 50, 25, 12.5, 6.25, 3.125, 1.56 and 0.79 μM (2× final assay concentrations and 1% DMSO).
(§6) An equal volume of each cannabinoid in the combination (stock concentration 40 mM) was mixed together to make a stock of 20 mM of each cannabinoid in DMSO. This was serially diluted (2 fold) in DMSO in a 96-well plate, to 20 (no dilution), 10, 5, 2.5, 1.25, 0.625, 0.315, 0.157 and […]. Following this, 10 ul of each combination dilution was diluted into 990 ul of 1% (v/v) FBS media in a deep well block making the final concentrations of 200, 100, 50, 25, 12.5, 6.25, 3.125, 1.56 and 0.79 μM (2× final assay concentrations and 1% DMSO).
(§7) Taxotere SOC was prepared in 100% DMSO to give a stock concentration of 10 mM. This was diluted in DMSO from the stock solution to 200 μM, then serially diluted (3-fold) in DMSO to 200 (no dilution), 66.66, 22.22, 7.41, 2.47, 0.82, 0.27, 0.09, 0.03 μM. 10 ul of each of the taxotere dilutions was diluted in 990 ul of 1% (v/v) FBS media making the final concentrations of 2, 0.67, 0.22, 0.074, 0.0247, 0.0082, 0.0027 0.0009, 0.0003 μM (2× final assay concentrations and 1% DMSO).
(§8) The plates were incubated for 72 h at 37° C. in 5% humidified CO2. To develop the plates, at 72 h, 10 μl of CellTiter-Blue™ reagent was added to each test/blank well.
(§9) The plates were incubated at 37° C., 5% humidified CO2. Fluorescence was measured using a Flex II Station plate reader (570 nm excitation wavelength, 600 nm emission wavelength, 590 nm cut-off) after 3 h.
(§10) The phytocannabinoid compounds CBD, CBGA, CBG, CBDA, THCV and THC were tested on a panel of lung (A549, NCI-H460), pancreatic (PANC1, Mia-Pa-Ca-2), melanoma (WM115, A375), ovarian (OVCAR3, SKOV3), gastric (MKN45, HGC-27), renal (ACHN) and bladder (RT112) cancer cell lines according to the protocol for 72 h in media containing 1% FBS.
(§11) The IC50 values for each phytocannabinoid and combination of CBD with the other phytocannabinoids was calculated for each cell line. The raw data values expressed in relative fluorescent units were normalised to the vehicle for each individual plate and any reduction in fluorescence indicated a decrease in viability.
(§12) This calculation was as described in Example 1 above.

NCI-H460 = assay: Cell viability (CellTiter-Blue, 72 h), NCI-H460 lung cancer cells; details: Homo sapiens
Description: as §1, §2, §3, §4, §5, §6, §7, §8, §9, §10, §11, §12

Mia-Pa-Ca-2 = assay: Cell viability (CellTiter-Blue, 72 h), Mia-Pa-Ca-2 pancreatic cancer cells; details: Homo sapiens
Description: as §1, §2, §3, §4, §5, §6
Gemcitabine SOC was prepared in 100% DMSO to give a stock concentration of 20 mM. This was then serially diluted (3 fold) in DMSO in a 96-well plate, to 20 (no dilution), 6.6, 2.2, 0.741, 0.247, 0.082, 0.027, 0.009 and 0.003 mM. Following this, 10 ul of each dilution was further diluted into 990 ul of 1% (v/v) FBS media making the final concentrations of 200 (no dilution), 66.66, 22.22, 7.41, 2.47, 0.82, 0.27, 0.09, 0.03 μM (2× final assay concentrations and 1% DMSO).
as §8, §9, §10, §11, §12

WM115 = assay: Cell viability (CellTiter-Blue, 72 h), WM115 melanoma cells; details: Homo sapiens, WM-115, WM115, 1% FBS
Description: as §1, §2, §3, §4, §5, §6
(§13) Cisplatin (stock of 1 mg/ml=3.33 mM in water) was diluted in 1% FBS media to give a stock concentration of 1 mM. This was then diluted in 1% FBS media from the stock solution to 200 μM, then serially diluted (3-fold) in 1% FBS media to 200 (no dilution), 66.66, 22.22, 7.41, 2.47, 0.82, 0.27, 0.09, 0.03 μM (2× final assay concentrations; no DMSO).
as §8, §9, §10, §11, §12

OVCAR3 = assay: Cell viability (CellTiter-Blue, 72 h), OVCAR3 ovarian cancer cells; details: Homo sapiens, OVCAR-3
Description: as §1, §2, §3, §4, §5, §6, §13, §8, §9, §10, §11, §12

RT112 = assay: Cell viability (CellTiter-Blue, 72 h), RT112 bladder cancer cells; details: Homo sapiens, RT-112
Description: as §1, §2, §3, §4, §5, §6, §13, §8, §9, §10, §11, §12

[1] = A549, 72 h, read-out: Cell line IC50 value
[2] = A549, read-out: Dm (median effect dose)
[3] = NCI-H460, 72 h, read-out: Cell line IC50 value
[4] = NCI-H460, read-out: Dm (median effect dose)
[5] = MIA PaCa-2, 72 h, read-out: Cell line IC50 value
[6] = MIA PaCa-2, read-out: Dm (median effect dose)
[7] = 72 h, read-out: Cell line IC50 value
[8] = read-out: Dm (median effect dose)
[9] = OVCAR3, 1% FBS, 72 h, read-out: Cell line IC50 value
[10] = OVCAR3 cells, 1% FBS, read-out: Dm (potency, median effect)
[11] = RT112, 1% FBS, 72 h, read-out: Cell line IC50 value
[12] = RT112 cells, 1% FBS, read-out: Dm (potency, median effect)

## C=C(C)[C@@H]1CCC(C)=C[C@H]1c1c(O)cc(CCCCC)cc1O [CBD, Cannabidiol]
A549; [1]
  IC50: 3.2 µM
A549; [2]
  IC50: 2.87 µM
NCI-H460; [3]
  IC50: 2.5 µM
NCI-H460; [4]
  IC50: 2.55 µM
Mia-Pa-Ca-2; [5]
  IC50: 2.6 µM
Mia-Pa-Ca-2; [6]
  IC50: 2 µM
WM115; [7]
  IC50: 2.4 µM
WM115; [8]
  IC50: 2.77 µM
OVCAR3; [9]
  IC50: 2.8 µM
OVCAR3; [10]
  IC50: 2.14 µM
RT112; [11]
  IC50: 2 µM
RT112; [12]
  IC50: 1.79 µM

## C=C(C)[C@@H]1CCC(C)=C[C@H]1c1c(O)cc(CCCCC)c(C(=O)O)c1O [CBDA, Cannabidiolic acid]
A549; [1]
  IC50: 8.5 µM
A549; [2]
  IC50: 7.6 µM
NCI-H460; [3]
  IC50: 7.3 µM
NCI-H460; [4]
  IC50: 6.6 µM
Mia-Pa-Ca-2; [5]
  IC50: 7.9 µM
Mia-Pa-Ca-2; [6]
  IC50: 7.09 µM
WM115; [7]
  IC50: 2.1 µM
WM115; [8]
  IC50: 14.7 µM
OVCAR3; [9]
  IC50: 6.7 µM
OVCAR3; [10]
  IC50: 5.51 µM
RT112; [11]
  IC50: 8.2 µM
RT112; [12]
  IC50: 6.36 µM

## CCCCCc1cc(O)c(C/C=C(\C)CCC=C(C)C)c(O)c1 [CBG, Cannabigerol]
A549; [1]
  IC50: 4.3 µM
A549; [2]
  IC50: 4.23 µM
NCI-H460; [3]
  IC50: 4 µM
NCI-H460; [4]
  IC50: 3.96 µM
Mia-Pa-Ca-2; [5]
  IC50: 2.2 µM
Mia-Pa-Ca-2; [6]
  IC50: 2.06 µM
WM115; [7]
  IC50: 3.1 µM
WM115; [8]
  IC50: 3.1 µM
OVCAR3; [9]
  IC50: 5.3 µM
OVCAR3; [10]
  IC50: 4.33 µM
RT112; [11]
  IC50: 2.5 µM
RT112; [12]
  IC50: 2.14 µM

## CCCCCc1cc(O)c(C/C=C(\C)CCC=C(C)C)c(O)c1C(=O)O [CBGA, Cannabigerolic acid]
A549; [1]
  IC50: 6.1 µM
A549; [2]
  IC50: 6.89 µM
NCI-H460; [3]
  IC50: 6.2 µM
NCI-H460; [4]
  IC50: 4.03 µM
Mia-Pa-Ca-2; [5]
  IC50: 8.9 µM
Mia-Pa-Ca-2; [6]
  IC50: 8.67 µM
WM115; [7]
  IC50: 1.5 µM
WM115; [8]
  IC50: 12.9 µM
OVCAR3; [9]
  IC50: 6.1 µM
OVCAR3; [10]
  IC50: 6.41 µM
RT112; [11]
  IC50: 9.8 µM
RT112; [12]
  IC50: 9.72 µM

## CCCCCc1cc(O)c2c(c1)OC(C)(C)[C@@H]1CCC(C)=C[C@@H]21 [THC, Tetrahydrocannabinol, reference compound]
A549; [1]
  IC50: 5.5 µM
A549; [2]
  IC50: 4.08 µM
NCI-H460; [3]
  IC50: 3.8 µM
NCI-H460; [4]
  IC50: 3.28 µM
Mia-Pa-Ca-2; [5]
  IC50: 2.9 µM
Mia-Pa-Ca-2; [6]
  IC50: 2.64 µM
WM115; [7]
  IC50: 2.9 µM
WM115; [8]
  IC50: 3.17 µM
OVCAR3; [9]
  IC50: 5.9 µM
OVCAR3; [10]
  IC50: 4.42 µM
RT112; [11]
  IC50: 3.6 µM
RT112; [12]
  IC50: 3.09 µM

## CCCc1cc(O)c2c(c1)OC(C)(C)[C@@H]1CCC(C)=C[C@@H]21 [THCV, Tetrahydrocannabivarin]
A549; [1]
  IC50: 7.4 µM
A549; [2]
  IC50: 6.59 µM
NCI-H460; [3]
  IC50: 4.6 µM
NCI-H460; [4]
  IC50: 4.53 µM
Mia-Pa-Ca-2; [5]
  IC50: 5.2 µM
Mia-Pa-Ca-2; [6]
  IC50: 4.79 µM
WM115; [7]
  IC50: 6.5 µM
WM115; [8]
  IC50: 6.43 µM
OVCAR3; [9]
  IC50: 6.5 µM
OVCAR3; [10]
  IC50: 6.51 µM
RT112; [11]
  IC50: 4.7 µM
RT112; [12]
  IC50: 4.75 µM

## CC(=O)O[C@@]12CO[C@@H]1C[C@H](O)[C@@]1(C)C(=O)[C@H](O)C3=C(C)[C@@H](OC(=O)[C@H](O)[C@@H](NC(=O)OC(C)(C)C)c4ccccc4)C[C@@](O)([C@@H](OC(=O)c4ccccc4)[C@H]21)C3(C)C [Taxotere, Docetaxel, reference compound]
A549; [1]
  IC50: 0.0006 µM
NCI-H460; [3]
  IC50: 0.0011 µM
